Source: patent publication US20080152644A1, “Genes Involved in Neurodegenerative Conditions” (priority 2005, published 2008)

Experiments:
Format in all cases: in vivo, Drosophila
A-beta42 = assay: Sandwich ELISA of A-beta42 extracted from heads of transgenic flies fed RAD001; settings: FIG. 8
Experimental: Antibodies: Mouse monoclonal antibody directed to the NH2 terminus of the A-beta peptide was used as the capture antibody (Biosource Cat#44-352-100). The antibody was diluted in 1×PBS 1:2900 (3.5 μl/10 ml) and applied to Maxisorb Plates (Nunc Cat#442404) and 100 ul/96 well or 50 μl/384 well by incubating overnight at 4C. Polyclonal detection antibodies were obtained from Biosource (anti-hA-beta40 Cat#44-348 and anti-hA-beta42 Cat#44-344) and diluted 1/2000 in 1% BSA/PBS […]. The tertiary antibody (Santa Cruz Cat# SC2313) was a horseradish peroxidase labeled anti-rabbit IgG (Diluted 1/5000 in 1% BSA/PBS).
Preparation of the A-beta standards: 2.31 g of sodium bicarbonate was dissolved in 500 mL of distilled water and the pH was adjusted to 9.0 with 2N sodium hydroxide. […]
Indirect Two Sandwich ELISA: After the overnight incubation with capture antibody the plates were washed twice on a microplate washer (Bioteck Instruments, Inc) in 1×PBS/0.05% Tween 20/1 mM EDTA). […] The plates were read on a microplate reader at […] (Molecular Devices, Inc.) within one hour.
The amount of A-beta42 from the heads of aged flies expressing A-beta42 was measured to see whether inactivation or reduced activation of Tor function affects the amount of A-beta42, such that it would correlate with the amelioration of A-beta42 induced toxicity. […]

[1] = tested on: transgenic flies expressing A-beta42; assay: Climbing assay (locomotor activity) of RAD001 fed flies expressing A-beta42; settings: RAD001 fed flies at 21 day, compared to placebo fed flies; data not shown
Text: For the locomotion assay, 20 flies of each experimental genotype were scored at 3, 10 and 15 days of age. Flies were transferred to fresh vials, tapped down and recorded for a few minutes until their climbing came to an equilibrium.
In order to analyze locomotion activity, we used a “climbing assay” (Le Bourg E, Lints F A. (1992). Hypergravity and aging in Drosophila melanogaster. 4. Climbing activity. Gerontology. 38:59-64), which measures the negative geotropic response that flies naturally display. Groups of flies at different stages of adult life (3, 10, 15 days) from experimental and control groups were assayed. […] Three different UAS-A-beta42 strains were used, expressing different amounts of A-beta42 peptide (A-beta42^H29.3, A-beta42^HJ2.12, A-beta42^HJ2.19). Strains A-beta42^HJ2.12 and A-beta42^HJ2.19 express higher levels of the peptide than strain A-beta42^H29.3.
If successful, this treatment would provide the same beneficiary effect on A-beta42 induced toxicity found through genetic modification. Flies expressing A-beta42 were fed every three days with 10 uM, 20 uM, 30 uM and 60 uM (where uM=10^−6 M) concentration of RAD001. Lifespan was scored until all the RAD001 fed flies died. The climbing assay was performed on RAD001 fed flies at 21 day, and compared to placebo fed flies.

[2] = tested on: transgenic flies expressing A-beta42; assay: Lifespan of transgenic flies expressing A-beta42 fed RAD001; settings: fed every three days with 10, 20, 30 and 60 uM RAD001; effect seen even at the lowest concentration; FIG. 7
Experimental: Flies were maintained in corn meal based standard fly food (Ashburner, 1989). Parental crosses were set up at 25° C. and F1 progeny was collected and raised at 29° C. (FIG. 1). Flies are crossed and maintained at 25° C. according to conventional methods except that all progeny are kept at 29° C. for maximal expression of phenotypes. In the binary Gal4 expression system, this temperature maximizes activity of the Gal4 protein. In the case of ElavGal4C^155/UAS-A-beta42, it is observed that the phenotype is stronger at 29° C., so these flies are kept at this temperature as well.
For 2nd and 3rd chromosome P-element strains, crosses were set using male flies (about 10) from the P-element strain and virgin females (about 10) from the A-beta42 over-expressing strain (ElavGal4C^155/UAS-A-beta42). For X-chromosome P strains, about 10 virgin females were collected from individual P strains and mated with 10 males from the A-beta over-expressing strain. […] 10 vials with 20 progeny from each cross were kept at 29° C. and scored for viability and behavior phenotypes as well as for general morphological changes. For scoring, live flies were transferred to fresh vials and the dead flies were counted every 2-3 days. […]
If successful, this treatment would provide the same beneficiary effect on A-beta42 induced toxicity found through genetic modification. […] Lifespan was scored until all the RAD001 fed flies died. […]

In the case of `CO[C@H]1C[C@@H]2CC[C@@H](C)[C@@](O)(O2)C(=O)C(=O)N2CCCC[C@H]2C(=O)O[C@H]([C@H](C)C[C@@H]2CC[C@@H](OCCO)[C@H](OC)C2)CC(=O)[C@H](C)/C=C(\C)[C@@H](O)[C@@H](OC)C(=O)[C@H](C)C[C@H](C)/C=C/C=C/C=C/1C` [RAD001], the “total A-beta42” value (A-beta42; flies dosed with 60 uM RAD001, heads of 13 day old flies) is reported as “pronounced decrease”, the “reduction of the amount of soluble A-beta42” value (A-beta42; heads of 13 day old flies fed 10-60 uM RAD001 every three days, normalized to total protein, vs placebo) is reported as “up to 42%” and the “locomotor defect (climbing assay)” value [1] is reported as “partially abrogated”. The “lifespan of flies expressing A-beta42” value [2] was “partial rescue of lifespan”.
